According to patent publication US4337256A, “1-Phenyl isoquinoline-5-acetic acid compounds and analgesic compositions thereof” (priority 1978, dated 1982):
Where two headings read alike, the source gives them in different places.

Columns and labels:
platelet aggregation = test: Activity of inhibiting platelet aggregation (collagen-induced); type: cell-based, male Hartley guinea pig; conditions: Cavia porcellus, 2 min, read-out: ED50 (inhibition of platelet aggregation)
Method: The citrated blood was centrifuged at a speed of 1,000 rpm for 10 minutes. The supernatant was collected to obtain a platelet-rich plasma. Separately, it was contrifuged at a speed of 3,000 rpm for 15 minutes, and the supernatant was collected to obtain a platelet-poor plasma. […] The platelet-rich plasma (250 μl) was placed in a cuvet, and preliminarily heated at 37° C. for 2 minutes, and then while stirring at a speed of 1,000 rpm, 31 μl of a test solution was added. The mixture was incubated for 2 minutes with stirring, and then 31 μl of a collagen solution was added, and the maximum aggregation rate of platelet was measured. The amount of the collagen applied was adjusted to the minimum effective amount which induced irreversible platelet aggregation. This amount was determined for each experiment. The percent inhibition of the test solution-applied group was determined in accordance with the following equation. From the percent inhibition, the ED50 value of the test compounds was calculated in accordance with the Litchfield-Wilcoxon method. Each test compound was dissolved in distilled water as a sodium salt.

[1] = test system: left hind paw edema (carrageenin); test: Anti-inflammatory activity: carrageenin-induced left hind paw edema; type: in vivo, male Wistar rats; conditions: Rattus norvegicus, po, p.o., 1 h before carrageenin, measured 3 h later, read-out: Percent inhibition (edema)
Method: Male Wistar rats weighing 120 to 150 g which had been fasted for 24 hours were used in groups each consisting of 5 rats. In each group, the volumes of the left hind paw were measured by a volume differential meter (made by Ugo Basile Company), and each of the test compounds was suspended in an aqueous solution of 0.5% of carboxymethyl cellulose and 2.0% of Tween 80, and administered orally through a tube. After one hour from the administration, 0.1 ml of a 1% suspension of carrageenin in distilled water was subcutaneously injected into the plantar tissues of the left hind paw. Three hours later, the volumes of the left hind paw were again measured. The increase in volume of the left hind paw of each rat in each group (the volume of edema) was measured.

stomach mucosal membrane = test: Ulcerogenic activity: gastric ulceration; type: in vivo, male Wistar rats; conditions: p.o., 4 h
Method: Each of the test compounds was orally administered by the same way as in the test on anti-inflammatory activity to male Wistar rats weighing 120 to 150 g which had been fasted for 24 hours. Four hours later, they were killed with ether.

[2] = target: T1, microsomes of bovine seminal vesicle (a prostaglandin synthesizing enzyme) (Bos taurus, UniProt O62664); test: Activity of inhibiting prostaglandin synthesis (prostaglandin E2 formed); type: biochemical; conditions: 37° C., 5 minutes, pH 8.0, 50 μM arachidonic acid; dissolved as a sodium salt; read-out: ED50 (inhibition of prostaglandin synthesis)
T1 construct: a microsome fraction prepared from bovine seminal vesicle; from tissue; host or cells: bovine seminal vesicle, lyophilized microsome fraction
T1 sequence (O62664 25-600): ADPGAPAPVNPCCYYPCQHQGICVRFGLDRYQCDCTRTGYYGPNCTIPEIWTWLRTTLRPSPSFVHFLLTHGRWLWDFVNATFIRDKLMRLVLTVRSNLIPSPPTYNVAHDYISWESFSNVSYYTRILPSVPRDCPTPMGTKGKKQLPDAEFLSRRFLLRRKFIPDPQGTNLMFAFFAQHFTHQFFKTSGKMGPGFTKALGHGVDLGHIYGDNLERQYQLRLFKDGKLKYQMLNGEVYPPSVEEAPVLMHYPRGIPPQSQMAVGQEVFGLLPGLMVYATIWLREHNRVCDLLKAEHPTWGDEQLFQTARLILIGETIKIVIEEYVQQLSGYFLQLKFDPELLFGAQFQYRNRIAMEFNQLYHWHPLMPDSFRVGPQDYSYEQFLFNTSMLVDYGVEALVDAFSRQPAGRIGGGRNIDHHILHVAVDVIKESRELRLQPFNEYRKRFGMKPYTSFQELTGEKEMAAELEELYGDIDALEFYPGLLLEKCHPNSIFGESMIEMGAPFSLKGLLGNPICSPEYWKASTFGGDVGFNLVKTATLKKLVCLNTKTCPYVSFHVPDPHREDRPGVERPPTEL
Method: The activity of inhibiting prostaglandin synthesis was measured by adding a test compound, i.e. a substance having the activity of inhibiting prostaglandin synthesis, to a prostaglandin synthesizing reaction system shown below, and quantitatively determining to what extent synthesis of prostaglandin was inhibited.
100 mM tris-HCl buffer (pH=8.0),
0.0125 μCi/ml (14c)-arachidonic acid,
1 mg/ml, as protein, of microsomes of bovine seminal vesicle (a prostaglandin synthesizing enzyme obtained by lyophylizing a microsome fraction prepared from bovine seminal vesicle).
The test compound was added to the reaction system to adjust the total amount to 1 ml. As a control, 1 ml of the above reaction system without addition of the test compound was provided. Each of these was incubated with shaking at 37° C. for 5 minutes, and 0.5 ml of 0.3 M citric acid was added to stop the reaction. The prostaglandin formed was extracted with ethyl acetate, fractionated by thin-layer chromatography. The radioactivity of each fraction was measured by a liquid scintillation counter. The amount of prostaglandin E2 formed in the group to which the test compound had been applied was measured, and the percent inhibition was calculated in accordance with the following equation. From the percent inhibition, the ED50 value of the test compounds was calculated in accordance with the Litchfield-Wilcoxon method. […]

[3] = test system: writhings (acetic acid) in the mice; test: Analgesic activity: acetic acid writhing test; type: in vivo, male mice (ddY); conditions: Mus musculus, po; p.o. 1 h before 0.6% acetic acid i.p.; parentheses show 95% confidence limits; read-out: ED50 (analgesic, writhing inhibition)
Method: Male mice (ddY) weighing 18 to 22 g were used in groups each consisting of 10 mice. Each of the compounds was suspended in an aqueous solution of 0.5% of carboxymethyl cellulose and 2.0% of Tween 80, and administered orally through a tube. After one hour from the administration, 0.6% acetic acid was administered intraperitoneally in an amount of 0.1 ml per 10 g of body weight, and the number of writhings which occurred in the mice during a period of 20 minutes after the administration was measured. The percent inhibition was calculated from the following equation, and the ED50 values of the test compounds were calculated from the percent inhibition in accordance with the method of Litchfield-Wilcoxon.

Toxicity test (LD50) = conditions: mouse, in vivo; oral, observed for 1 week; parentheses show 95% confidence limits
Method: Each of the test compounds was suspended in a physiological saline solution having dissolved therein 2% of Tween 80, and orally administered through a tube to groups of ddY mice (male: 19 to 22 g) each group consisting of 6 mice. The mice were then observed for 1 week. The LD50 values were calculated from the lethality in accordance with the method of Litchfield-Wilcoxon.

digestive organs = conditions: known agents, statement in words; cited from earlier work
[4] = reported in J. Med. Chem. 1978, 21, 582-585; cited from earlier work

O=C(O)Cc1cccc2c(-c3ccc(Cl)cc3)nccc12 [A, 1-(4-chlorophenyl)isoquinoline-5-acetic acid]
IC50 (platelet aggregation; collagen-induced, platelet-rich plasma, dissolved as a sodium salt, parentheses show 95% confidence limits): 1.9 µM | inhibition in vivo at 0.3 mg/kg ([1]; 0.3 mg/kg): 22.7 ± 6.1% | inhibition in vivo at 1 mg/kg ([1]; 1 mg/kg): 27.3 ± 7.4% | inhibition in vivo at 3 mg/kg ([1]; 3 mg/kg): 44.6 ± 5.8% | Gastric ulceration: bleeding at the mucosal membrane (stomach mucosal membrane; 10 mg/kg): 0/10 | Gastric ulceration: damage beneath the mucosal membrane (stomach mucosal membrane; 10 mg/kg): 0/10 | Gastric ulceration: bleeding at the mucosal membrane (stomach mucosal membrane; 30 mg/kg): 0/5 | Gastric ulceration: damage beneath the mucosal membrane (stomach mucosal membrane; 30 mg/kg): 0/5 | IC50 [2]: 0.82 µM | ED50 [3]: 1.4 mg/kg | LD50 at 168 h (Toxicity test (LD50)): 182 mg/kg

CC(=O)Oc1ccccc1C(=O)O [Aspirin, reference compound]
IC50 (platelet aggregation; Platelet): 15.8 µM | troubles in the digestive organs (digestive organs): fairly heavy troubles in the digestive organs

NC(=O)Cc1cc2ccccc2c(-c2ccc(Cl)cc2)n1 [1-(4-chlorophenyl)-3-carbamoylmethyl isoquinoline]
anti-inflammatory and analgesic activities [4]: has anti-inflammatory and analgesic activities

CCCCC1C(=O)N(c2ccccc2)N(c2ccccc2)C1=O [Phenylbutazone, reference compound]
troubles in the digestive organs (digestive organs): fairly heavy troubles in the digestive organs | IC50 [2]: 26.1 µM | ED50 [3]: 109 mg/kg
